According to patent publication US11208404B2 (PERENNA PHARMACEUTICALS, INC., priority 2017, dated 2021):
Values joined by “and” are separate entries in the source; they are usually repeats but may differ in a detail not shown here. Equal values may be shown once.

Target: ALCAT1 (Homo sapiens (Human), UniProt Q6UWP7)
Test: In vitro acyltransferase assay for ALCAT1 inhibitors
Assay type: biochemical
Settings: for % inh @ 10 μM / inhibition at 10 µM: 10 μM compound; for % inh @ 10 μM / inhibition at 1 µM / inhibition at 10 µM / % inh @ 1 μM: in vitro enzymatic assay; for IC50: ALCAT1 enzyme activity, triplicates, GraphPad, read-out: IC50; for inhibition at 1 µM / % inh @ 1 μM: 1 μM compound
Excerpt: The human ALCAT1 protein were expressed in Spodoptera frugiperda (Sf9) insect cells by using a Bac-to-Bac baculovirus expression system (Invitrogen) according to the manufacturer's instruction. High-titer recombinant baculovirus expressing the human ALCAT1 protein was generated by several rounds of viral amplification. The Sf9 cells were typically infected with recombinant baculovirus for 3 days, harvested in ice-cold phosphate-buffered saline (PBS), and homogenized in 20 mm NaCl by going through French press. The total cell lysates were centrifuged at 10,000×g for 1 hours at 4° C. to eliminate the nucleus fraction, followed by ultracentrifugation at 100,000×g to pallet the membrane fraction. The membrane fraction was resuspended in enzymatic buffer that contain 10% glycerol, quantified for protein concentration, aliquoted, and stored at −80° C.
ALCAT1 enzymatic activity was determined by measuring the conversion of monolysocardiolipin (MLCL) to cardiolipin or lysophosphatidylglycerol (LPG) to phosphatidylglycerol (PG) in an enzymatic reaction mixture that contained 50 mm Tris/HCl, pH 7.0, 100 μm lysophospholipids, 25 μm [^14C]acyl-CoA (50 mCi/mmol, American Radiolabeled Chemicals, Inc), and membrane fraction (0.5-2.5 μg) in a total volume of 200 μl. The reaction was incubated at room temperature for 30 min. The lipids were extracted will chloroform, dried, and separated by thin layer chromatography (TLC) with chloroform:hexane:methanol:acetic acid (50:30:10:5, v/v) or chloroform:methanol:water (65:25:4, v/v). After separation, TLC plates were exposed to a Phosphorlmager screen to visualize the radiolabeled products with a Molecular Dynamics Typhoon Scanner (Sunnyvale, Calif.). In some experiments, NBD-CoA was used at 100 μM to replace the [^14C]acyl-CoA in the enzymatic reaction. All quantitative data were expressed as mean±S.E. Statistical analyses for differences between two groups were carried out using a Student's t test.
Compound inhibitors for ALCAT1 enzyme were analyzed by an in vitro enzymatic assay as detailed above. Compound inhibitors were added to the enzymatic mixture at 1-20 μM concentrations before the start of the acyltransferase reaction.
Where multiple measurements were taken this is indicated by a “/” between multiple values.
IC50 values for each compound were analyzed in triplicates, and calculated by GraphPad software.

Chain of ALCAT1 (Q6UWP7 whole entry): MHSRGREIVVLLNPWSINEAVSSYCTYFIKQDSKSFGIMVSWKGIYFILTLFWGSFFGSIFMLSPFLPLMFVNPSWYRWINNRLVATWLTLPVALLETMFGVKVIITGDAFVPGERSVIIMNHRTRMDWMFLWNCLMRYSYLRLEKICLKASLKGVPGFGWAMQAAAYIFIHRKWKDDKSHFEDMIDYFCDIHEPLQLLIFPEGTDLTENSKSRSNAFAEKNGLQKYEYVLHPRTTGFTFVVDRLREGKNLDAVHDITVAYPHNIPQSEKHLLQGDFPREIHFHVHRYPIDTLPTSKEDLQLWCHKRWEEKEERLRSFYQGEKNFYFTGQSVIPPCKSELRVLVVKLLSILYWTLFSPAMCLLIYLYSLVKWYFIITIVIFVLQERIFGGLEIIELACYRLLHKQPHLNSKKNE

% inh @ 10 μM	IC50 [nM]	inhibition at 1 µM [%]	inhibition at 10 µM [%]	% inh @ 1 μM	Compound
43% and 68% and 75%	3800				O=C(Nc1cccc(-c2nnc(-c3ccco3)o2)c1)c1ccccc1 [Compound 46]
		35			Cc1ccc(C(=O)Nc2cc(-c3nnc(-c4ccco4)o3)ccc2F)cc1[N+](=O)[O-] [Compound 334]
			2		N#Cc1ccccc1C(=O)Nc1cccc(-c2nnc(-c3ccco3)o2)c1 [Compound 56]
		28		23%	COc1ccc(NC(=O)c2ccccc2F)cc1-c1nnc(-c2ccco2)o1 [Compound 136]
			2		O=C(Nc1ccc(Cl)c(-c2nnc(-c3ccco3)o2)c1)c1ccccc1F [Compound 24]
	110	89			O=C(Nc1cccc(-c2nnc(-c3ccco3)o2)c1F)c1ccccc1F [Compound 79, 2-fluoro-N-(2-fluoro-3-(5-(furan-2-yl)-1,3,4-oxadiazol-2-yl)phenyl)benzamide]
		57	62		CC(C)Oc1ccc(Cl)cc1C(=O)Nc1cccc(-c2nnc(-c3ccco3)o2)c1 [Compound 478]
		37		48%	O=C(Nc1cccc(-c2nnc(-c3cnco3)o2)c1)c1ccccc1F [Compound 137]
			85		O=C(Nc1cccc(-c2nnc(-c3ccsc3)o2)c1)c1ccccc1F [Compound 21]
	350	79	100		COc1ccc(OC)c(C(=O)Nc2cccc(-c3nnc(-c4ccco4)o3)c2)c1 [Compound 171]
87%	3900		76		O=C(Nc1cccc(-c2nnc(-c3ccco3)o2)c1)c1cccnc1F [Compound 37]
	1800		89		O=C(Nc1cc(-c2nnc(-c3ccco3)o2)ccc1Cl)c1ccccc1F [Compound 23]
			3		O=C(Nc1cccc(-c2nnc(-c3ccco3)o2)c1)c1ccccc1C(F)(F)F [Compound 7]
	38	94	100		COc1ccc(Br)cc1C(=O)Nc1cccc(-c2nnc(-c3ccco3)o2)c1 [Compound 120, 5-Bromo-N-(3-(5-(furan-2-yl)-1,3,4-oxadiazol-2-yl)phenyl)-2-methoxybenzamide]
	360	70	88		O=C(Nc1cccc(-c2nnc(-c3ccco3)o2)c1)c1cc(F)ccc1F [Compound 195]
			9		O=C(O)c1ccccc1C(=O)Nc1cccc(-c2nnc(-c3ccco3)o2)c1 [Compound 11]
	290	80	100		Cc1cccc(C(=O)Nc2cccc(-c3nnc(-c4ccco4)o3)c2)c1F [Compound 190]
	120				O=C(Nc1cccc(-c2nnc(-c3ccco3)o2)c1)c1cc(Cl)ccc1OCC(F)F [Compound 286]
	110	96	94		COc1ccc(I)cc1C(=O)Nc1cccc(-c2nnc(-c3ccco3)o2)c1 [Compound 113]
		42		59%	Cc1c(NC(=O)c2ccccc2F)cccc1-c1nnc(-c2ccco2)o1 [Compound 78]
	39	100	100		CCOc1ccc(Cl)cc1C(=O)Nc1cccc(-c2nnc(-c3ccco3)o2)c1 [Compound 122, 5-Chloro-2-ethoxy-N-(3-(5-(furan-2-yl)-1,3,4-oxadiazol-2-yl)phenyl)benzamide]
		50		48%	O=C(Nc1cc(-c2nnc(-c3ccno3)o2)ccc1F)c1ccccc1F [Compound 139]
		29			COc1c(NC(=O)c2ccccc2F)cccc1-c1nnc(-c2ccco2)o1 [Compound 140]
	990	26			O=C(Nc1ccccc1F)c1cccc(-c2nnc(-c3ccco3)o2)c1 [Compound 44, N-(2-fluorophenyl)-3-(5-(furan-2-yl)-1,3,4-oxadiazol-2-yl)benzamide]
		11	2		O=C(Nc1cccc(-c2nnc(-c3ccco3)o2)c1)C1CCCCC1 [Compound 98]

% inh @ 10 μM	IC50 [nM]	inhibition at 1 µM [%]	inhibition at 10 µM [%]	% inh @ 1 μM	Compound
		65	67		O=C(Nc1cccc(-c2nnc(-c3ccco3)o2)c1)c1cc(Br)ccc1I [Compound 141]
	760	66			O=C(Nc1cccc(-c2nnc(-c3ccco3)o2)c1)c1cc([N+](=O)[O-])ccc1Cl [Compound 337]
		23	70		O=C(Nc1cccc(-c2nnc(-c3ccno3)o2)c1)c1ccccc1F [Compound 42]
	120	97		96%	O=C(Nc1cccc(-c2nnc(-c3ccco3)o2)c1)c1ccccc1OC(F)F [Compound 273]
48% and 49% and 79%	210	59		63%	O=C(Nc1cccc(-c2nnc(-c3ccco3)o2)c1)c1ccccc1F [Compound 1]
	130	73	92		O=C(Nc1cccc(-c2nnc(-c3ccco3)o2)c1)c1cc(F)c(F)cc1F [Compound 144]
		23	3		O=C(Nc1cccc(-c2nnc(-c3ccc(Cl)o3)o2)n1)c1ccccc1F [Compound 82]
		55		73%	O=C(Nc1cccc(-c2nnc(-c3ccco3)o2)c1)c1cccc2c1OCCC2 [Compound 296]
		17	41		COc1cccc(F)c1C(=O)Nc1cccc(-c2nnc(-c3ccco3)o2)c1 [Compound 179]
		20	27		COc1cccc(OC)c1C(=O)Nc1cccc(-c2nnc(-c3ccco3)o2)c1 [Compound 170]
		18			COc1ccc(C(=O)Nc2cc(-c3nnc(-c4ccco4)o3)ccc2F)cc1[N+](=O)[O-] [Compound 333]
		16	5		O=C(Nc1ccc(-c2nnc(-c3ccco3)o2)cc1)c1ccccc1F [Compound 35, 2-fluoro-N-(4-(5-(furan-2-yl)-1,3,4-oxadiazol-2-yl)phenyl)benzamide]
		37	21		Nc1ccccc1C(=O)Nc1cccc(-c2nnc(-c3ccco3)o2)c1 [Compound 77]
	87	90	100		CCCOc1ccc(Cl)cc1C(=O)Nc1cccc(-c2nnc(-c3ccco3)o2)c1 [Compound 123, 5-Chloro-N-(3-(5-(furan-2-yl)-1,3,4-oxadiazol-2-yl)phenyl)-2-propoxybenzamide]
	170	97		97/97%	O=C(Nc1cc(Cl)ccc1F)c1cccc(-c2nnc(-c3ccco3)o2)c1 [Compound 229]
	60	100		99%	O=C(Nc1cccc(-c2nnc(-c3ccco3)o2)c1)c1cc(Br)ccc1OCC(F)(F)F [Compound 226, 5-Bromo-N-(3-(5-(furan-2-yl)-1,3,4-oxadiazol-2-yl)phenyl)-2-(2,2,2-trifluoroethoxy)benzamide]
	120	96		94%	COc1c(F)cccc1C(=O)Nc1cccc(-c2nnc(-c3ccco3)o2)c1 [Compound 220]
		15			O=C(Nc1cccc(-c2nnc(-c3cc[nH]n3)o2)c1)c1ccccc1F [Compound 298, N-(3-(5-(1H-pyrazol-3-yl)-1,3,4-oxadiazol-2-yl)phenyl)-2-fluorobenzamide]
	190	91		97%	Cc1ccc(OCC(F)(F)F)c(C(=O)Nc2cccc(-c3nnc(-c4ccco4)o3)c2)c1 [Compound 224]
		72			O=C(Nc1cccc(-c2nnc(-c3ccco3)o2)c1)c1cccc([N+](=O)[O-])c1F [Compound 340]
		20			O=C(Nc1cccc(-c2nnc(-c3cccs3)o2)c1)c1ccccc1F [Compound 15, 2-fluoro-N-(3-(5-(thiophen-2-yl)-1,3,4-oxadiazol-2-yl)phenyl)benzamide]
	320	92	100		O=C(Nc1cccc(-c2nnc(-c3ccco3)o2)c1)c1cc(Cl)ccc1F [Compound 189]
		65			O=C(Nc1cccc(-c2nnc(-c3ccco3)o2)c1)c1cc(F)cc([N+](=O)[O-])c1 [Compound 338]
		16	36		COC(=O)c1ccccc1C(=O)Nc1cccc(-c2nnc(-c3ccco3)o2)c1 [Compound 75]
